Laboratory results published in patent US20160374979A1, “Method of Treatment of Alopecia with Monoterpenoids” (CELLMID LIMITED, priority 2013, published 2016).

How the values were obtained:
[1] = system: alopecia patients; details: cited from earlier work
[2] = system: murine vibrissae follicles; assay: Hair shaft elongation of murine vibrissae follicles cultured ex vivo; design: species or system C3H mice; details: exogenous FGF-5 300 ng/mL, 8 days, versus control (FIGS. 20 and 21)
Source text: Five week old male C3H mice (supplied by Japan SLC, lnc., Hamamatsu, Japan) were used for isolation of vibrissae follicles. The mice were sacrificed and the vibrissae follicles were carefully dissected from the mystacial pad. Briefly, the mystacial pad was cut into two sides (left and right). The skin cut, picked at the edge by tweezers, was washed in (i) 70% Ethanol for 30 seconds, (ii) PBS for 10 seconds, (iii) fresh PBS for 10 seconds, and (iv) another fresh PBS for 10 seconds. This washing process was repeated twice. After washing, the skin cut was placed inverted to expose the vibrissae follicles in Dulbecco's Modified Eagle's Medium (DMEM; Wako Pure Chemical, Osaka, Japan) at 37° C. Under a dissecting microscope, the surrounding tissue was removed from the follicles using tweezers, carefully so as not to destroy the structure of the follicles. The isolated follicles were then placed immediately into Williams' E medium (Life Technologies, Carlsbad, USA).
From the isolated mouse vibrissae follicles, only early anagen follicles were selected and randomized into groups with 30 follicles per group. […]
Follicles in each of the treatment and control groups were incubated at 37° C. at 5% CO2 for 8 days, while exchanging the respective culture mediums every 2 days. From Day 1, elongation of hair shafts was observed and the elongation length was measured for each hair shaft every 24 hours from Day 1 to Day 8 using a micrometer under microscope. […]
Follicles in each of the treatment and control groups were incubated at 37° C. at 5% CO2 for 5 days, while exchanging the culture medium every 3 days. From Day 1, elongation of hair shafts was observed and the elongation length was measured for each hair shaft every 24 hours from Day 1 to Day 5. using a micrometer under microscope. […]

Molecule: Nc1cc(N2CCCCC2)nc(N)[n+]1[O-] [Minoxidil]
- patients with irritation of the scalp (dryness, scaling, itching, redness) ([1]; 2% solution): approximately 7%

Molecule: CC(C)(C)NC(=O)[C@H]1CC[C@H]2[C@@H]3CC[C@H]4NC(=O)C=C[C@]4(C)[C@H]3CC[C@]12C [finasteride, Finasteride]
- balding male recipients with poor or no response ([1]; finasteride treatment): ≥ 35%

B1: FGF-5: FGF-5 protein (R&D Systems) added to follicle culture medium at 300 ng/mL (protein, UniProt P12034 21-268, looked up)
Fibroblast growth factor 5: HGEKRLAPKGQPGPAATDRNPRGSSSRQSSSSAMSSSSASSSPAASLGSQGSGLEQSSFQWSPSGRRTGSLYCRVGIGFHLQIYPDGKVNGSHEANMLSVLEIFAVSQGIVGIRGVFSNKFLAMSKKGKLHASAKFTDDCKFRERFQENSYNTYASAIHRTEKTGREWYVALNKRGKAKRGCSPRVKPQHISTHFLPRFKQSEQPELSFTVTVPEKKKPPSPIKPKIPLSAPRKNTNSVKYRLKFRFG
- rate of hair shaft elongation [2]: slow the rate of hair shaft elongation over time
